{"source": "ChEMBL document CHEMBL1201862", "about": "“PubChem BioAssay data set” (2004)", "key": {"[1]": {"target": "Ras and Rab interactor 1/Tyrosine-protein kinase ABL1 (Homo sapiens, UniProt P00519+Q13671)", "sequence (P00519 whole entry)": "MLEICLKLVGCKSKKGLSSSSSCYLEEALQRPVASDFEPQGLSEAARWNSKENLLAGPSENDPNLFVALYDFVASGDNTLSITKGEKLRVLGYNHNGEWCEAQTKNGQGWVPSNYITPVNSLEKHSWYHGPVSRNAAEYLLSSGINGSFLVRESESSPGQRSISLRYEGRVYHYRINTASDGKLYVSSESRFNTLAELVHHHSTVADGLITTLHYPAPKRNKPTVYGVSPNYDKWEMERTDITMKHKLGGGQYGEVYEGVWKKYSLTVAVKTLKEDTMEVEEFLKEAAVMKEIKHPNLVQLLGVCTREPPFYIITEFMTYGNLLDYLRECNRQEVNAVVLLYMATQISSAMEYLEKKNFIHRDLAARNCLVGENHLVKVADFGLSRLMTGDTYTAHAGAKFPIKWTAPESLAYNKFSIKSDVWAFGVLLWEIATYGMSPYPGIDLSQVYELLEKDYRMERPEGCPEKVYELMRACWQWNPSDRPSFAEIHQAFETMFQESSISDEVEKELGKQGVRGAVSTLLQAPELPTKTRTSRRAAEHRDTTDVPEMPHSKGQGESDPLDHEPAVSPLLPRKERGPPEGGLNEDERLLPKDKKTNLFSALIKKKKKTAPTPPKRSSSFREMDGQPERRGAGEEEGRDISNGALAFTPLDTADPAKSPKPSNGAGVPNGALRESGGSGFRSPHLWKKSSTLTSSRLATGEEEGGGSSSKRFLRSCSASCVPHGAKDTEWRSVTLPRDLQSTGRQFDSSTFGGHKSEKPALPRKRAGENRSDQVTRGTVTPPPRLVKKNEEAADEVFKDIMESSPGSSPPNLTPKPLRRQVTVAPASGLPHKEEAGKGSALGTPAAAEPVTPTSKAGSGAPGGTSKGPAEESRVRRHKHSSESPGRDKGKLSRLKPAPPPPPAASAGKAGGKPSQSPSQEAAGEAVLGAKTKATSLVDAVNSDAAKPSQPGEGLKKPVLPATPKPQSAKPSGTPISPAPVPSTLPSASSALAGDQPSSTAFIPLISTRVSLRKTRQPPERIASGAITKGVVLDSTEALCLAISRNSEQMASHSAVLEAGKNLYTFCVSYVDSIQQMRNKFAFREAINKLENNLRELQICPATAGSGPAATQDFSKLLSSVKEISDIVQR", "sequence (Q13671 whole entry)": "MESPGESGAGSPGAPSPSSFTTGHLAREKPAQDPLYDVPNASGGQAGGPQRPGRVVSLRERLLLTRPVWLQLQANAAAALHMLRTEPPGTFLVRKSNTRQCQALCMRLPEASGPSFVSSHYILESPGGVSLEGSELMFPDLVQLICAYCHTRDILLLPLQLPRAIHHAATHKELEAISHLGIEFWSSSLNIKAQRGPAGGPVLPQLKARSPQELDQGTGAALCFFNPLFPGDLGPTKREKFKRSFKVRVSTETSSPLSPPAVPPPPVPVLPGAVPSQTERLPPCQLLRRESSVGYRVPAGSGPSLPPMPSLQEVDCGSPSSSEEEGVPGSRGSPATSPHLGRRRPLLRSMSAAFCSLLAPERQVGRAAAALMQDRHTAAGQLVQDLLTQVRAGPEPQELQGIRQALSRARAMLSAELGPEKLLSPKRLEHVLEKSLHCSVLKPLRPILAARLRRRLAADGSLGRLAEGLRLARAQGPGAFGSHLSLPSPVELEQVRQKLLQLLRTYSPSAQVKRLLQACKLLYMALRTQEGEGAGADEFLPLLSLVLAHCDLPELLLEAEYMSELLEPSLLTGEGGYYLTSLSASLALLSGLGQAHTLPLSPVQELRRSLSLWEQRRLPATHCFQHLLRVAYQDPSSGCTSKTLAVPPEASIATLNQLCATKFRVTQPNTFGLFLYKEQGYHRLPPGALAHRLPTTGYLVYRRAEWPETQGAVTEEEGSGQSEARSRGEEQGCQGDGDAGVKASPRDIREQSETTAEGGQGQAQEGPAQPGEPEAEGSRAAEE", "assay_type": "functional"}, "[2]": {"target": "G-protein coupled receptor 55 (Homo sapiens, UniProt Q9Y2T6)", "sequence (Q9Y2T6 whole entry)": "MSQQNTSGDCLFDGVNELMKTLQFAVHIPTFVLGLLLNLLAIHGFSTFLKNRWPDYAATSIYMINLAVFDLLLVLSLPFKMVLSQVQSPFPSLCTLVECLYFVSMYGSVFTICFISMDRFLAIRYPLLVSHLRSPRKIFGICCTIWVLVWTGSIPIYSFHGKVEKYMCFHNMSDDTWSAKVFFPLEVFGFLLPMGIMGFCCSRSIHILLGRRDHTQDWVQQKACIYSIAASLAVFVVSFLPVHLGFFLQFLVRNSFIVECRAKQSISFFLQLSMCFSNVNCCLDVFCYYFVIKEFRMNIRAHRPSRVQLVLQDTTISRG", "experiment": "GPR55 antagonists blocking LPI-driven arrestin recruitment, primary screen, imaging, U2OS, beta-arrestin-GFP, LPI agonist (AID 2013);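 further: antagonist potency measured as reduced agonist-driven arrestin aggregation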", "assay_type": "functional"}, "[3]": {"experiment": "HeLa cell cytotoxicity, dose response, cytotoxicity control for MgcRacGAP inhibitor project (AID 624300)", "assay_type": "functional"}, "[4]": {"target": "T1, Rac GTPase-activating protein 1 (Homo sapiens, UniProt Q9H0H5)", "T1 sequence (Q9H0H5 whole entry)": "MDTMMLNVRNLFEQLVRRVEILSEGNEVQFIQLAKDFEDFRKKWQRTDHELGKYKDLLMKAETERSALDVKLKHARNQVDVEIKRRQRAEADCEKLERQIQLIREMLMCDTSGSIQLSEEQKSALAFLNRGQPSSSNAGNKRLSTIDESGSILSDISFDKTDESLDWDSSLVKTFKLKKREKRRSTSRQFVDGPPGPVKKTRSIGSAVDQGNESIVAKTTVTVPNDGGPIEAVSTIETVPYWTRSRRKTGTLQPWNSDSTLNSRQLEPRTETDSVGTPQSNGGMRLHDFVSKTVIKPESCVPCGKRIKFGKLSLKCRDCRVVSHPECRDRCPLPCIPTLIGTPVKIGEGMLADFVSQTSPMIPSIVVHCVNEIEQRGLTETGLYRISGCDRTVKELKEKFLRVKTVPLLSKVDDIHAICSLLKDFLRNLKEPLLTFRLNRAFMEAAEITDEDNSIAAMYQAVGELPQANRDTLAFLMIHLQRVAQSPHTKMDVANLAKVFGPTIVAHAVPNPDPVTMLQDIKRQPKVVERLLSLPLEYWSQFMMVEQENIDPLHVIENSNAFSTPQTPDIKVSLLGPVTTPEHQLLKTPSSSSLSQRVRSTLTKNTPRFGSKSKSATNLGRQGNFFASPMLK", "experiment": "MgcRacGAP GTPase-activating activity inhibitors, confirmation, biochemical, ADP Hunter fluorescence, primary and confirmatory (AID 624330)", "assay_type": "functional"}, "[5]": {"target": "Tyrosine-protein phosphatase non-receptor type 11 (Homo sapiens, UniProt Q06124)", "sequence (Q06124 whole entry)": "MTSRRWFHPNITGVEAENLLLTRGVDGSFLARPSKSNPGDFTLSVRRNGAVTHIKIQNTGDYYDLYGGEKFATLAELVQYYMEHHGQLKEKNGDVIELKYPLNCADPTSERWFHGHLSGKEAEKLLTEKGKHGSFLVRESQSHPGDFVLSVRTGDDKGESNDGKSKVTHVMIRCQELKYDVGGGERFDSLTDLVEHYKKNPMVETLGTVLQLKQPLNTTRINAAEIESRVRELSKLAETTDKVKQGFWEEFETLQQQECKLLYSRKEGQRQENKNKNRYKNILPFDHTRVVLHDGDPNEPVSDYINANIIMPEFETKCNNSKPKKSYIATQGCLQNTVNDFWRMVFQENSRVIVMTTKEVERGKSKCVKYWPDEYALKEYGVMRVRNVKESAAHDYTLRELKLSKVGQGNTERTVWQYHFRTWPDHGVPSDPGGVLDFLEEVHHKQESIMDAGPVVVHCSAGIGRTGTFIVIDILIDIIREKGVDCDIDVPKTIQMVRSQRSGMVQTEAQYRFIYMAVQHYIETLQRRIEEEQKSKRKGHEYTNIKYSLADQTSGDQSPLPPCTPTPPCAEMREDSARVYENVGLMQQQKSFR", "experiment": "SHP2 phosphatase inhibition, dose response, selectivity assay for STEP inhibitor project, biochemical (AID 602367)", "assay_type": "functional", "settings": "read-out: IC50_Mean"}, "[6]": {"target": "Tyrosine-protein phosphatase non-receptor type 5 (Homo sapiens, UniProt P54829)", "sequence (P54829 whole entry)": "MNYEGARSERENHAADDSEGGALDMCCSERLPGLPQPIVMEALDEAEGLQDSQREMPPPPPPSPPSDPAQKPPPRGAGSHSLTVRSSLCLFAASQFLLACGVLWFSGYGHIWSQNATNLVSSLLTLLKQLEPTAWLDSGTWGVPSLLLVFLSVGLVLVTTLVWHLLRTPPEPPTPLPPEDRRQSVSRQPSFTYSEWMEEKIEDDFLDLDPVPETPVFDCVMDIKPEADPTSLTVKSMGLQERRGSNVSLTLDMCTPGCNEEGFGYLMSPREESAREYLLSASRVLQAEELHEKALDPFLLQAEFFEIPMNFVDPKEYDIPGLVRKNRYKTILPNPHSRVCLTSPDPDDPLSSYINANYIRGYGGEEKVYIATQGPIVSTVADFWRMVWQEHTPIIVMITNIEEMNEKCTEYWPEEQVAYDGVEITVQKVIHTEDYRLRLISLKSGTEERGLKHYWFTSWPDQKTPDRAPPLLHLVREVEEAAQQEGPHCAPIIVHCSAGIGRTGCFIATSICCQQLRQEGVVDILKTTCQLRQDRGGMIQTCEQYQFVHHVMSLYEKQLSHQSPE", "experiment": "STEP phosphatase inhibitors, confirmation, biochemical, fluorescence intensity, uHTS hits (AID 602372)", "assay_type": "functional", "settings": "read-out: IC50_Mean"}, "[7]": {"target": "Dual specificity protein phosphatase 3 (Homo sapiens, UniProt P51452)", "sequence (P51452 whole entry)": "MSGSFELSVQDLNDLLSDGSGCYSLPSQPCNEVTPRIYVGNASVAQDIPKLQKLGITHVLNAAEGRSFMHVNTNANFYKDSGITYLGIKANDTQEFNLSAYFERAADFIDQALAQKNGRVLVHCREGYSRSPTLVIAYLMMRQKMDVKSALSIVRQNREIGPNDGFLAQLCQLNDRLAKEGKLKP", "experiment": "VHR phosphatase inhibition, dose response, selectivity assay for STEP inhibitor project, biochemical (AID 602374)", "assay_type": "functional", "settings": "read-out: IC50_Mean"}, "[8]": {"target": "T2, Low molecular weight phosphotyrosine protein phosphatase (Homo sapiens, UniProt P24666)", "T2 sequence (P24666 whole entry)": "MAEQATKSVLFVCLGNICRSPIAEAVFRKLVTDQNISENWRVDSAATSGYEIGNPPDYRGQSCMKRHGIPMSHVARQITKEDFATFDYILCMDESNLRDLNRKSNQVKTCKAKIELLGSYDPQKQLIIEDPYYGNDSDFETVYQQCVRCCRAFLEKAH", "assay_type": "functional", "settings": "read-out: IC50_Mean"}, "Melanocortin receptor 4": {"target": "Melanocortin receptor 4 (Homo sapiens, UniProt P32245)", "sequence (P32245 whole entry)": "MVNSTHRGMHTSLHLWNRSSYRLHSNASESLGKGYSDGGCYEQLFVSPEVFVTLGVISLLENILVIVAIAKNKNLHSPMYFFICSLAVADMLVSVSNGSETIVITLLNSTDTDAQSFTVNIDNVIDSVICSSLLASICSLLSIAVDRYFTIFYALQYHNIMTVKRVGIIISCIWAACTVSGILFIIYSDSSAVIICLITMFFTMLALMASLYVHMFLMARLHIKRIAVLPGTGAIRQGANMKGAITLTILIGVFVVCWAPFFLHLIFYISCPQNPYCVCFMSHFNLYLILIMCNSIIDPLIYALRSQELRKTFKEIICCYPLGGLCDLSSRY", "assay_type": "functional, cell-based"}, "A549": {"tested_on": "A549", "experiment": "A549 cell toxicity, dose response, cytotoxicity control, plate reader, cherry-pick samples (AID 687028)", "assay_type": "functional, cell-based", "settings": "Homo sapiens"}, "cells [9]": {"experiment": "cells", "assay_type": "functional, cell-based"}, "cells [10]": {"experiment": "cells", "assay_type": "functional, cell-based", "remark": "listed apart in the source"}, "[11]": {"target": "T3, Carboxy-terminal domain RNA polymerase II polypeptide A small phosphatase 1 (Homo sapiens, UniProt Q9GZU7)", "T3 sequence (Q9GZU7 whole entry)": "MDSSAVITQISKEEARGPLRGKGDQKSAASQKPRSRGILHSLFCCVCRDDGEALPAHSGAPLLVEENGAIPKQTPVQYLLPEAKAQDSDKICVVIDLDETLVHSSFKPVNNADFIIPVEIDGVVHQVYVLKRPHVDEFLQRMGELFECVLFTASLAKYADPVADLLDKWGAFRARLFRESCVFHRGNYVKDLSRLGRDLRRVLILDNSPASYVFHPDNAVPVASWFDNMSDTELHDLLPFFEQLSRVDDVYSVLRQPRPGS", "experiment": "inhibitors of CTDSP1, concentration-response testing, biochemical assay, absorbance-based, actives from ultra-high-throughput screening (AID 540297)", "assay_type": "functional"}, "[12]": {"target": "Luciferin 4-monooxygenase (Photinus pyralis, UniProt P08659)", "sequence (P08659 whole entry)": "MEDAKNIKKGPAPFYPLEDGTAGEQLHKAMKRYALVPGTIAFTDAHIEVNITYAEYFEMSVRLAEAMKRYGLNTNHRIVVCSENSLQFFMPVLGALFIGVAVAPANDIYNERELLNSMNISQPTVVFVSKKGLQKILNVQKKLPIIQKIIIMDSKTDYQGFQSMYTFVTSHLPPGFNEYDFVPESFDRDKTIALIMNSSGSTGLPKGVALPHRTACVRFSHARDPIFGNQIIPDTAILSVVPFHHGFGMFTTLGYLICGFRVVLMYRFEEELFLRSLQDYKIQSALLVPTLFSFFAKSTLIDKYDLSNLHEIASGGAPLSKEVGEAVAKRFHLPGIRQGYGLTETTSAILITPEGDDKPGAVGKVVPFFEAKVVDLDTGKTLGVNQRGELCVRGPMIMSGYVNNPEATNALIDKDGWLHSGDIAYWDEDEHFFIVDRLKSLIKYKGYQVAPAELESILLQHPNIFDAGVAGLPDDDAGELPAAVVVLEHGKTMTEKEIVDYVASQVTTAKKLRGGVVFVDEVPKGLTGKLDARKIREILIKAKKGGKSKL", "experiment": "firefly luciferase enzyme inhibitors, dose response, biochemical, luminescence (AID 1891)"}, "[13]": {"experiment": "Luminescence Cell-Based Dose Confirmation HTS to Identify Inhibitors of Platelet Dense Granule Release. [Related pubchem assays: 1663 (Primary HTS), 1678 (Summary of Project)]", "assay_type": "functional"}, "Vero": {"tested_on": "Vero", "experiment": "Vero cell toxicity, dose response, cytotoxicity control, plate reader, cherry-pick samples (AID 687020)", "assay_type": "functional, cell-based", "settings": "Chlorocebus sabaeus"}, "[14]": {"target": "DNA repair and recombination protein RAD54-like (Homo sapiens, UniProt Q92698)", "experiment": "inhibitors of human RAD54 branch migration, confirmation, biochemical, fluorescence, cherry-picked samples, dose series (AID 651657)", "assay_type": "functional"}, "[15]": {"target": "T4, DNA repair protein RAD52 homolog (Homo sapiens, UniProt P43351)", "T4 sequence (P43351 whole entry)": "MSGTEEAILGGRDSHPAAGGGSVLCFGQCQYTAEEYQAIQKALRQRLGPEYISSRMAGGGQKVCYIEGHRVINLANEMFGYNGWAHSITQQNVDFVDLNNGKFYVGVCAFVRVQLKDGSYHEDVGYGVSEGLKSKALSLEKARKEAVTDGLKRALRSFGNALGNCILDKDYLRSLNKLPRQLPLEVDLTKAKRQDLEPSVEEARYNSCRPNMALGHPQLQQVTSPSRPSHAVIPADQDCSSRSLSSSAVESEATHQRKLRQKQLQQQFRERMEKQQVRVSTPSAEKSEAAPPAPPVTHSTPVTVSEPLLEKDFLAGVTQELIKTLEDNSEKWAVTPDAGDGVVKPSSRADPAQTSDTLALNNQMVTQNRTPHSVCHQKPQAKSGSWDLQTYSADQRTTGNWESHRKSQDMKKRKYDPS", "assay_type": "functional, biochemical"}, "[16]": {"target": "Fructose-bisphosphate aldolase (Mycobacterium tuberculosis, UniProt P9WQA3)", "sequence (P9WQA3 whole entry)": "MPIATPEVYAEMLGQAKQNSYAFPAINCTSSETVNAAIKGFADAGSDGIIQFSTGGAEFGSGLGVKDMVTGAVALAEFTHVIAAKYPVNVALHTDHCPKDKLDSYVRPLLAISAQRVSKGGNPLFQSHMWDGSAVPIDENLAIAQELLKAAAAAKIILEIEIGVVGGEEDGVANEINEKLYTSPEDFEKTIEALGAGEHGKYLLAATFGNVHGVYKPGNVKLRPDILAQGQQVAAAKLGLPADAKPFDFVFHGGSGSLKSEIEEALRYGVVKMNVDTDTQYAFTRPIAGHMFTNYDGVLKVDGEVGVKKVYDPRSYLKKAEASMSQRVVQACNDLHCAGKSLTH", "experiment": "Fluorescence-based biochemical high throughput dose response assay for inhibitors of the fructose-bisphosphate aldolase (FBA) of M. tuberculosis.", "assay_type": "functional"}}, "note": "Calls of active or inactive are those of the source."}
{"compound": "CCOc1ccc(CCNC(=O)CN2C(=O)c3cccnc3Oc3ccc(C)cc32)cc1OCC", "values": [{"measurement": "IC50", "setting": "[1]", "result": "9.82 µM (active)"}]}
{"compound": "Cc1n[nH]c(-c2ccc(O)cc2O)c1Oc1ccccc1", "values": [{"measurement": "IC50", "setting": "[2]", "result": "8.31 µM (active)"}, {"measurement": "CC50", "setting": "[3]", "result": "100 µM (active)"}, {"measurement": "IC50", "setting": "[4]", "result": "34.2 µM (active)"}]}
{"compound": "Sc1ncnc2c1ncn2-c1ccc(Cl)cc1", "values": [{"measurement": "IC50", "setting": "[5]", "result": "6.29 µM (active)"}, {"measurement": "IC50", "setting": "[6]", "result": "29.4 µM (inactive)"}, {"measurement": "IC50", "setting": "[7]", "result": "1.48 µM (active)"}]}
{"compound": "COc1ccc2ncccc2c1Cc1c(OC)ccc2ncccc12", "values": [{"measurement": "IC50", "setting": "[8]", "result": "9.3 µM (active)"}]}
{"compound": "CC(=O)Nc1cc(-c2ccc(C(=O)NC3CC3)cc2)cn2c(-c3cccc(C(F)(F)F)c3)cnc12", "values": [{"measurement": "EC50", "setting": "Melanocortin receptor 4", "result": "> 89.2 µM (inactive)"}, {"measurement": "AC50", "setting": "A549", "result": "26.8 µM (active)"}]}
{"compound": "O=C(N/N=C/c1ccc(F)cc1)c1cc(-c2ccc3c(c2)OCO3)[nH]n1", "values": [{"measurement": "EC50", "setting": "cells [9]", "result": "> 350 µM (not active)"}, {"measurement": "EC50", "setting": "cells [10]", "result": "> 350 µM (not active)"}, {"measurement": "IC50", "setting": "[11]", "result": "9.8 µM (active)"}, {"measurement": "IC50", "setting": "[5]", "result": "5.14 µM (active)"}, {"measurement": "IC50", "setting": "[6]", "result": "> 80 µM (inactive)"}, {"measurement": "IC50", "setting": "[7]", "result": "6.61 µM (active)"}]}
{"compound": "CCN(CC)c1ccc(/C=N/NC(=O)c2ccoc2C)cc1", "values": [{"measurement": "EC50", "setting": "[12]", "result": "1.42 µM (active)"}, {"measurement": "EC50", "setting": "[13]", "result": "3.59 µM (active)"}, {"measurement": "CC50", "setting": "[3]", "result": "100 µM (active)"}]}
{"compound": "COC(=O)c1ccc2nc(-c3ccc(F)cc3)c(Cc3ccccc3OC)n2c1", "values": [{"measurement": "AC50", "setting": "Vero", "result": "35.2 µM (active)"}]}
{"compound": "CN(C)CCNC(=O)c1cccc(-c2cnc3c(NC=O)cc(-c4ccc(C(=O)N5CCOCC5)cc4)cn23)c1", "values": [{"measurement": "AC50", "setting": "[14]", "result": "47.8 µM (active)"}, {"measurement": "AC50", "setting": "[15]", "result": "9.04 µM (active)"}]}
{"compound": "CCOC(=O)CC1(C)Sc2ccccc2N1S(=O)(=O)c1ccc(C)cc1", "note": "(centres undefined)", "values": [{"measurement": "AC50", "setting": "Vero", "result": "28.5 µM (active)"}]}
{"compound": "CNc1cccc(-c2ccc(N3CCN(C)CC3)nc2)n1", "values": [{"measurement": "IC50", "setting": "[16]", "result": "2.18 µM (active)"}]}
